The record followed here is patent US20250090437A1, “COSMETIC COMPOUNDING AGENT, COSMETIC AND PRODUCTION METHOD THEREOF” (MIYOSHI OIL & FAT CO., LTD., priority 2019, published 2025).

The nature of data set [1]: Water retention property test 1. The data set is classed as physicochemical. Conditions: 80 wt % aqueous solution; for Water retention property test 1 Post-test moisture rate / Water retention property test 1 Rate of reduction in moisture: 24 hours at 40° C. and 25% RH. Here is the method: A moisture rate after 24 hours was again measured (post-test moisture rate: B), followed by using the formula below to calculate a rate of reduction in moisture so as to evaluate the water retention property. • Pre-test moisture rate: A (%) • Post-test moisture rate: B (%)

Data set [2] is described as follows: Water retention property test 2 (hydrates). Format: physicochemical. The following applies: hydrate (anhydrides: aqueous solution at mono- to trihydrate concentration); for Pre-test moisture rate: before the test; for Post-test moisture rate / Rate of reduction in moisture: unsealed, 24 hours at 40° C. and 25% RH. On the procedure:
(2) Water retention property test 2 The water retention property of the hydrate of each compound was evaluated. Hydrates were used in the cases of the compounds C1 to C38, C40 to C49 and C56 to C59; however, since the compounds C39 and C62 to C64 were anhydrides, there were used aqueous solutions prepared by adding water so that a concentration would be that of monohydrate to trihydrate. The moisture rate of the sample(s) was confirmed using a Karl Fischer moisture meter (pre-test moisture rate: A). Next, 1.0 g of each of these samples was added to a screw tube, and this screw tube, while remaining unsealed, was then left to stand still for 24 hours in a thermo-hygrostat set to 40° C. and 25% RH. A moisture rate after 24 hours was again measured (post-test moisture rate: B), followed by calculating a rate of reduction in moisture in a similar manner as above so as to evaluate the water retention property. Here, a comparative evaluation was performed on each hydrate of the compounds C1 to C38, C40 to C49 and C56 to C59 together with an aqueous solution(s) of the compound C39 having a concentration(s) corresponding to the numbers of these hydration waters.
(monohydrates in compounds C1 to C38, C40 to C49 and C56 to C59 of working examples C62 to C99, C103 to C116 with compound C39 of working example C100, compound C62 of comparative example C4, compound C63 of comparative example C7 and compound C64 of comparative example C10)
(dihydrates in compounds C1 to C38, C40 to C49 and C56 to C59 of working examples C62 to C99, C103 to C116 with compound C39 of working example C101, compound C62 of comparative example C5, compound C63 of comparative example C8 and compound C64 of comparative example C11)
(trihydrates in compounds C1 to C38, C40 to C49 and C56 to C59 of working examples C62 to C99, C103 to C116 with compound C39 of working example C102, compound C62 of comparative example C6, compound C63 of comparative example C9 and compound C64 of comparative example C12)

As for `CC(O)C(=O)O.NCCO` (stereo not drawn) [Compound C1], in data set [1], the “Water retention property test 1 Pre-test moisture rate” value was determined as 20.0%, the “Water retention property test 1 Post-test moisture rate” value is 19.3% and the “Water retention property test 1 Rate of reduction in moisture” value amounted to 3.5%.

`CC(O)C(=O)O.OCCNCCO` [Compound C2]: in data set [1], the “Water retention property test 1 Pre-test moisture rate” value stood at 20.0%, the “Water retention property test 1 Post-test moisture rate” value is 19.0% and the “Water retention property test 1 Rate of reduction in moisture” value was 4.8%.

On to `NC(CO)(CO)CO.O=C(O)CC(O)(CC(=O)O)C(=O)O` [Compound C21], for which, in data set [1], the “Water retention property test 1 Pre-test moisture rate” value is recorded as 20.0% 20.0%, the “Water retention property test 1 Post-test moisture rate” value is on record as 19.0% and the “Water retention property test 1 Rate of reduction in moisture” value is listed as 5.1%.

Take `CS(=O)(=O)O.NC(CO)(CO)CO` [Compound C22]: in data set [1], the “Water retention property test 1 Pre-test moisture rate” value is listed as 20.0%, the “Water retention property test 1 Post-test moisture rate” value is reported as 19.8% and the “Water retention property test 1 Rate of reduction in moisture” value amounted to 1.2%.

In the case of `CC(O)C(=O)O.N` (stereo not drawn) [Compound C24], in data set [1], the “Water retention property test 1 Pre-test moisture rate” value is recorded as 20.0%, the “Water retention property test 1 Post-test moisture rate” value is recorded as 19.0% and the “Water retention property test 1 Rate of reduction in moisture” value stood at 4.9%.

In the case of `CC(O)C(=O)[O-].CCC(CO)(CO)[N+](CC(O)CO)(CC(O)CO)CC(O)CO` (stereo not drawn) [Compound C25], in data set [1], the “Water retention property test 1 Pre-test moisture rate” value is 20.0%, the “Water retention property test 1 Post-test moisture rate” value turned out to be 19.0% and the “Water retention property test 1 Rate of reduction in moisture” value is 5.0%.

On to `CC(O)C(=O)[O-].OCC[N+](CCO)(CCO)CCO` [Compound C26], for which, in data set [1], the “Water retention property test 1 Pre-test moisture rate” value amounted to 20.0%, the “Water retention property test 1 Post-test moisture rate” value stood at 19.0% and the “Water retention property test 1 Rate of reduction in moisture” value is 5.0%.

With `CC(=O)[O-].C[N+](C)(C)CCO` [Compound C27], in data set [1], the “Water retention property test 1 Pre-test moisture rate” value was determined as 20.0%, the “Water retention property test 1 Post-test moisture rate” value was 19.0% and the “Water retention property test 1 Rate of reduction in moisture” value turned out to be 5.0%.

In the case of `C[N+](C)(C)CCO.O=C([O-])CO` [Compound C28], in data set [1], the “Water retention property test 1 Pre-test moisture rate” value was 20.0%, the “Water retention property test 1 Post-test moisture rate” value was found to be 19.4% and the “Water retention property test 1 Rate of reduction in moisture” value stood at 3.0%.

As to `C[N+](C)(C)CCO.O=C([O-])C=CC(=O)O` [Compound C30], in data set [1], the “Water retention property test 1 Pre-test moisture rate” value amounted to 20.0%, the “Water retention property test 1 Post-test moisture rate” value is on record as 19.0% and the “Water retention property test 1 Rate of reduction in moisture” value is recorded as 5.5%.

In the case of `C[N+](C)(C)CCO.O=C([O-])CO` [Working example C89], in data set [2], the Pre-test moisture rate amounted to 9.1%, the Post-test moisture rate came out at 8.9% and the “Rate of reduction in moisture” value was 2.6%.

For the molecule `CC(O)C(=O)[O-].C[N+](C)(C)CCO` [Working example C90], in data set [2], the Pre-test moisture rate was determined as 8.5%, the Post-test moisture rate came to 8.1% and the “Rate of reduction in moisture” value is recorded as 4.9%.

`C[N+](C)(C)CCO.O=C([O-])C=CC(=O)O` [Working example C91]: in data set [2], the Pre-test moisture rate stood at 7.6%, the Post-test moisture rate is listed as 7.2% and the “Rate of reduction in moisture” value is given as 5.0%.

With `C[N+](C)(C)CCO.O=C([O-])CCC(=O)O` [Working example C92], in data set [2], the Pre-test moisture rate is on record as 7.5%, the Post-test moisture rate is 7.1% and the “Rate of reduction in moisture” value is reported as 5.0%.

`CS(=O)(=O)[O-].C[N+](C)(C)CCO` [Working example C93]: in data set [2], the Pre-test moisture rate was determined as 8.3%, the Post-test moisture rate was 8.1% and the “Rate of reduction in moisture” value came out at 2.0%.

Take `C[N+](C)(C)CCO.O=P([O-])(O)O` [Working example C94]: in data set [2], the Pre-test moisture rate was 8.2%, the Post-test moisture rate is reported as 8.0% and the “Rate of reduction in moisture” value is reported as 2.8%.

Turning to `C[N+](C)(C)CCO.O=[PH2][O-]` [Working example C95], in data set [2], the Pre-test moisture rate worked out at 9.6%, the Post-test moisture rate was 9.3% and the “Rate of reduction in moisture” value was 2.9%.

`C[N+](C)(C)CCO.[Cl-]` [Working example C96]: in data set [2], the Pre-test moisture rate came to 11.4%, the Post-test moisture rate is 10.7% and the “Rate of reduction in moisture” value came out at 6.0%.

With `CC[N+](C)(C)CCO.CS(=O)(=O)[O-]` [Working example C97], in data set [2], the Pre-test moisture rate was 7.8%, the Post-test moisture rate is 7.7% and the “Rate of reduction in moisture” value is 1.9%.

As for `C[N+](C)(CCO)CC(O)CO.[Cl-]` (stereo not drawn) [Working example C98], in data set [2], the Pre-test moisture rate came out at 15.3%, the Post-test moisture rate is recorded as 14.0% and the “Rate of reduction in moisture” value turned out to be 8.7%.

With `C[N+](C)(CCO)CC(O)C[N+](C)(C)CCO.[Cl-].[Cl-]` [Working example C99], in data set [2], the Pre-test moisture rate amounted to 10.5%, the Post-test moisture rate was found to be 9.4% and the “Rate of reduction in moisture” value was determined as 10.2%.

`CC(O)C(=O)[O-].CCCC[N+](CCCC)(CCCC)CCCC` [Working example C100]: in data set [2], the Pre-test moisture rate is given as 5.2%, the Post-test moisture rate came out at 4.9% and the “Rate of reduction in moisture” value is 6.4%.

For the molecule `CC(O)C(=O)[O-].CCCC[N+](CCCC)(CCCC)CCCC` [Working example C102], in data set [2], the Pre-test moisture rate was 14.0%, the Post-test moisture rate was 12.3% and the “Rate of reduction in moisture” value amounted to 12.0%.

In the case of `NCCO.O=C1O[C@H]([C@@H](O)CO)C(O)=C1O` [Working example C103], in data set [2], the Pre-test moisture rate stood at 13.2%, the Post-test moisture rate is listed as 13.0% and the “Rate of reduction in moisture” value worked out at 1.5%.

As to `CCC(N)(CO)CO.O=C1O[C@H]([C@@H](O)CO)C(O)=C1O` [Working example C107], in data set [2], the Pre-test moisture rate stood at 10.9%, the Post-test moisture rate was 10.6% and the “Rate of reduction in moisture” value is reported as 2.8%.

For `NC(CO)(CO)CO.O=C1OC(C(O)CO)C(O)=C1O` (stereo not drawn) [Working example C108], in data set [2], the Pre-test moisture rate was determined as 10.8%, the Post-test moisture rate is given as 10.5% and the “Rate of reduction in moisture” value is reported as 2.8%.

With `NCC(O)C(O)C(O)C(O)CO.O=C1OC(C(O)CO)C(O)=C1O` (stereo not drawn) [Working example C109], in data set [2], the Pre-test moisture rate stood at 9.2%, the Post-test moisture rate stood at 9.1% and the “Rate of reduction in moisture” value was found to be 1.1%.

On to `C[N+](C)(C)CCO.O=C1OC(C(O)CO)C([O-])=C1O` (stereo not drawn) [Working example C110], for which, in data set [2], the Pre-test moisture rate was determined as 11.4%, the Post-test moisture rate stood at 11.2% and the “Rate of reduction in moisture” value is reported as 1.8%.

`C[N+](C)(C)CC(O)CC(=O)O.O=C1O[C@H]([C@@H](O)CO)C([O-])=C1O` [Working example C111]: in data set [2], the Pre-test moisture rate worked out at 9.7%, the Post-test moisture rate is listed as 9.6% and the “Rate of reduction in moisture” value is 1.0%.

For the molecule `CC(=O)OCC[N+](C)(C)C.O=C1O[C@H]([C@@H](O)CO)C([O-])=C1O` [Working example C112], in data set [2], the Pre-test moisture rate is 10.1%, the Post-test moisture rate is 9.9% and the “Rate of reduction in moisture” value came to 2.0%.

With `CC(C)(N)CO.CC(O)C(=O)O` [Working example C113], in data set [2], the Pre-test moisture rate came out at 16.7%, the Post-test moisture rate was determined as 16.3% and the “Rate of reduction in moisture” value turned out to be 2.5%.

For `CC(N)(CO)CO.CC(O)C(=O)O` [Working example C114], in data set [2], the Pre-test moisture rate was determined as 15.6%, the Post-test moisture rate was found to be 15.2% and the “Rate of reduction in moisture” value is listed as 2.8%.

`CC(C)(N)CO.O=C1OC(C(O)CO)C(O)=C1O` (stereo not drawn) [Working example C115]: in data set [2], the Pre-test moisture rate is listed as 12.0%, the Post-test moisture rate amounted to 11.7% and the “Rate of reduction in moisture” value came to 2.9%.

Take `CC(N)(CO)CO.O=C1O[C@H]([C@@H](O)CO)C(O)=C1O` [Working example C116]: in data set [2], the Pre-test moisture rate amounted to 11.4%, the Post-test moisture rate turned out to be 11.1% and the “Rate of reduction in moisture” value stood at 2.9%.
